Tests used:
[1] = test system: yfRMsr transfected SK-Hep1; assay: Specific activity of yfRMsr transfected SK-Hep1 cells towards free Met sulfoxides; assay type: biochemical, human; conditions: for Specific activity of fRMsr-transfected cells: fRMsr-transfected SK-Hep1 cells; for Specific activity for each Met-O: yfRMsr transfected SK-Hep1, ± standard deviations from 3 independent experiments
Method: Transfection of yeast fRMsr gene into SK-Hep1 cells—A 6 His-tag sequence was cloned at the C-terminus of yeast fRMsr, the sequence was inserted into a mammalian expression vector, pCI-neo (Promega), and the resulting construct was verified by DNA sequencing. […] To establish a stable cell line, cells were selected in the presence of 800 μg/mL G418 sulfate (Promega), and further maintained in the presence of 400 μg/mL G418 sulfate. Expression of recombinant fRMsr was verified by western blotting using anti-His-tag antibodies and Msr activities were assayed by an HPLC method using OPA derivatization.
(§1) Activity assays of fRMsr—Reaction mixture (40 μL) included 50 mM DTT, 1 mM substrate (Met-RO or Met-SO), and purified enzyme or cell lysate prepared by treatment with CelLytic™M cell lysis reagent (Sigma). 20 μL of the reaction mixture was mixed with 2 μL of TCA and subjected to OPA derivatization as described above and then injected onto the column to measure endogenous Met level in the samples. An additional 20 μL from the same original reaction mixture were incubated at 37° C. for 30 minutes and then subjected to OPA derivatization by the same procedure using TCA. After derivatization of the sample (2-5 μL) by adding OPA solution to 100 μL as a final volume, 50 μL of the mixture were subjected to an HPLC separation as described above.

SK-Hep1 cells = assay: Growth and morphology of SK-Hep1 cells in Met-free DMEM supplemented with Met or Met sulfoxides (MTS proliferation assay, microscopy); assay type: cell-based, human; conditions: for Growth of SK-Hep1 cells: Met-free DMEM supplemented with 0.1 mM of the compound; for Morphology of SK-Hep1 cells: after 96 hours on medium with 0.1 mM of the compound
Method: Cell culture—SK-Hep1 (ATCC: HTB-52™) and fRMsr-transfected SK-Hep1 cells were cultured in DMEM or Met-free DMEM (GIBCO) media, supplemented with 0.1 mM Met, 0.1 mM Met-RO, 0.1 mM Met-SO, or 0.1 mM Met-RSO. […] Thus, 0.1 mM Met sulfoxides were used in the experiments described below. Cell culture experiments, with the exception of a proliferation assay, were carried out in 6-well plates, and cells were maintained at 37° C. in a 5% CO2 atmosphere. Proliferation Assay—Cell growth was quantified using colorimetric MTS assay (Promega). Cells in regular DMEM medium were plated in 96-well plates at 5×10^3 cells/well, washed with PBS, and specialized DMEM media were added that contained Met, Met-SO, Met-RO, or Met-RSO 24 hours after plating. To assay for cell proliferation, a tetrazolium compound [3-(4,5-dimethylthiazol-2-yl)-5-(3-carboxymethoxyphenyl)-2-(4-sulfophenyl)-2H-tetrazolium, inner salt; MTS] and an electron coupling reagent (phenazine methosulfate; PMS) were mixed according to the manufacturer's protocol and then 20 μL of the mixture were added to 100 μL of phenol red-excluded media that further replaced cell culture media. After 90 minutes of incubation at 37° C. in the atmosphere of 5% CO2, cell proliferation was measured at indicated time periods from 0 to 96 hours at 450 nm in a plate reader. Direct counting of viable cells using 0.2% trypan blue was done in 6-well plates. Microscopy—A Nikon TE-300 Widefield Microscope was used to prepare images of SK-Hep1 cells grown on different Met and Met sulfoxide media. Microscopy analyses were carried out in the University of Nebraska Microscopy Core Facility.

selenoproteins = assay: 75Se metabolic labeling of SK-Hep1 cells grown on Met and Met sulfoxide media; assay type: cell-based, human; conditions: 0.1 mM of each amino acid
Method: ^75 Se Metabolic labeling—SK-Hep1 cells were plated in 6-well plates at 7.5×10^4 cells/well in 1.5 mL of regular DMEM medium. After 24 hours, cells were washed with PBS and the medium was changed to modified DMEM media containing Met, Met-SO, Met-RO, or Met-RSO (0.1 mM of each amino acid). 0.01 mCi of freshly neutralized [^75Se]selenious acid (specific activity 1,000 Ci/mmol, University of Missouri Research Reactor) was added in each well at 48 hours after changing the medium and cells were incubated at 37° C. for 24 hours in 5% CO2 atmosphere, followed by harvesting the cells. Cell extracts (30 μg of total protein) were electrophoresed on 10% Bis-Tris gels and transferred onto PVDF membranes (Invitrogen). The ^75Se radioactivity pattern was visualized by using a PhosphorImager (GE Health Care).

yeast fRMsr = molecular target: T1, yeast fRMsr (Saccharomyces cerevisiae, UniProt P36088); assay: Activity assay of purified recombinant yeast fRMsr towards free Met sulfoxides (HPLC, OPA derivatization); assay type: biochemical, S. cerevisiae; conditions: for Activity of recombinant yeast fRMsr protein towards the substrate: recombinant His-tagged yeast fRMsr; for Specific activity for each Met-O: yfRMsr (yeast free methionine R-sulfoxide reductase), ± standard deviations from 3 independent experiments
T1 construct: His-tag (C); made in house; host or cells: E. coli BL21 (DE3), pET21b
T1 sequence (P36088 1-180): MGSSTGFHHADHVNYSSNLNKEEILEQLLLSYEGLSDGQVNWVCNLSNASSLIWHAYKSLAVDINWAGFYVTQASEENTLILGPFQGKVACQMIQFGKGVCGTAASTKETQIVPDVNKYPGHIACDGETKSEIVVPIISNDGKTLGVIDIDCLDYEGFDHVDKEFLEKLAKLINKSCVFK
From the text: Cloning and expression of yeast fRMsr—Characterization of S. cerevisiae fRMsr (YKL069W) is described in Le, D. T., et al. (2009) Functional analysis of free methionine-R-sulfoxide reductase from Saccharomyces cerevisiae. J Biol Chem., 284(7), 4354-4364. Briefly, a yeast fRMsr cDNA, which encodes a protein homologous to fRMsr from E. coli, was amplified from S. cerevisiae genomic DNA and subcloned into pET21b vector (Novagen) using primers 5′-AAACATATGATGGGCTCATCAACCGGGTTTC-3′ (sense; SEQ ID NO:1) and 5′-AAGCGGCCGCGACACATGATTTATTAATTAATTTAGCAAG-3′ (antisense; SEQ ID NO:2). After transformation into BL21 (DE3) E. coli, the subcloned sequence was verified by DNA sequencing. Cells with the plasmid in 500 mL LB medium containing 100 μg/mL ampicillin were grown until OD600 reached 0.6-0.8, followed by addition of IPTG to 0.3 mM. Protein expression was at 30° C. for 4 hours, followed by harvesting cells by centrifugation at 4,000 rpm for 5 minutes. Cells were washed with PBS and stored at −70° C. until use.
To purify the protein, a cell pellet was dissolved in resuspension buffer (Tris-HCl, pH 7.5, 15 mM imidazole, 300 mM NaCl), and PMSF was added to a final concentration of 0.5 mM. After sonication, the supernatant was collected by centrifugation at 8,000 rpm for 30 minutes. The supernatant was loaded onto a cobalt Talon resin (Clontech) pre-equilibrated with resuspension buffer. Following washing with the same buffer, the protein was eluted with elution buffer (Tris-HCl, pH 7.5, 300 mM imidazole, 300 mM NaCl). Fractions containing yeast fRMsr were pooled together and dialyzed overnight against PBS in a dialysis cassette (Pierce).
as §1

In the case of `C[S@+]([O-])CC[C@H](N)C(=O)O` [Met-SO, methionine-S-sulfoxide], the “Specific activity of fRMsr-transfected cells” value [1] is reported as “≈ 42.7 pmol/min/mg protein”, the “Specific activity for each Met-O” value [1] is reported as 42.7 ± 5.9 pmol/min/mg and the “Growth of SK-Hep1 cells” value (SK-Hep1 cells) is reported as “could also proliferate”. For the same molecule, the “Morphology of SK-Hep1 cells” value (SK-Hep1 cells) was “resembled those maintained in the presence of Met”, the “Selenoprotein patterns (75Se labeling)” value (selenoproteins) was “No difference was observed” and the “Activity of recombinant yeast fRMsr protein towards the substrate” value (yeast fRMsr) was “inactive”. The “Specific activity for each Met-O” value (yeast fRMsr) was “ND* (A signal corresponding to specific activity less than 5 pmol/min/mg is shown as ND (Not Detectable))”.

For `C[S@@+]([O-])CC[C@H](N)C(=O)O` [Met-RO, methionine-R-sulfoxide], the “Specific activity of fRMsr-transfected cells” value [1] was “≈ 46.4 pmol/min/mg protein”, the “Specific activity for each Met-O” value [1] was 46.4 ± 5.0 pmol/min/mg and the “Growth of SK-Hep1 cells” value (SK-Hep1 cells) was “did not support growth”. For the same molecule, the “Morphology of SK-Hep1 cells” value (SK-Hep1 cells) was “long and narrow”, the “Selenoprotein patterns (75Se labeling)” value (selenoproteins) was “No difference was observed” and the “Activity of recombinant yeast fRMsr protein towards the substrate” value (yeast fRMsr) was “≈ 33 nmol/min/mg protein”. The “Specific activity for each Met-O” value (yeast fRMsr) was 30015 ± 2652 pmol/min/mg.

— patent publication US20110178072A1, “STEREOSPECIFICITY OF METHYLSULFINYL REDUCTION” (priority 2008, published 2011)
